According to PubChem BioAssay AID1963832 (Molecular Pharmacology Branch, DTP, NCI, 2024):

System: 885724-159-R-J1-PDC complex spheroid viability
Assay: Anticancer human tumor 885724-159-R-J1-PDC patient-derived pancreatic adenocarcinoma cell line growth inhibition [POLQ]
Settings: for IC50: curve of first compound; for viability, T/C: stronger effect = lower value
Method in brief: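 Complex spheroid viability model combining PDC tumour cells with endothelial (HUVEC) and MSC stromal cells. Novobiocin, ART-558 or RP6685 were tested singly and in combination with standard and investigational anticancer drugs. Each was titrated in half-log steps from near clinical Cmax, or from 10 microM where Cmax was unknown.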

[1] = second compound 0.0316 µM, first compound 0.0316 µM
[2] = second compound 0.0316 µM, first compound 0.1 µM
[3] = second compound 0.0316 µM, first compound 0.316 µM
[4] = second compound 0.0316 µM, first compound 1 µM
[5] = second compound 0.0316 µM, first compound 3.16 µM
[6] = second compound 0.0316 µM, first compound 10 µM
[7] = second compound 0.1 µM, first compound 0.0316 µM
[8] = second compound 0.1 µM, first compound 0.1 µM
[9] = second compound 0.1 µM, first compound 0.316 µM
[10] = second compound 0.1 µM, first compound 1 µM
[11] = second compound 0.1 µM, first compound 3.16 µM
[12] = second compound 0.1 µM, first compound 10 µM
[13] = second compound 0.316 µM, first compound 0.0316 µM
[14] = second compound 0.316 µM, first compound 0.1 µM
[15] = second compound 0.316 µM, first compound 0.316 µM
[16] = second compound 0.316 µM, first compound 1 µM
[17] = second compound 0.316 µM, first compound 3.16 µM
[18] = second compound 0.316 µM, first compound 10 µM
[19] = second compound 1 µM, first compound 0.0316 µM
[20] = second compound 1 µM, first compound 0.1 µM
[21] = second compound 1 µM, first compound 0.316 µM
[22] = second compound 1 µM, first compound 1 µM
[23] = second compound 1 µM, first compound 3.16 µM
[24] = second compound 1 µM, first compound 10 µM
[25] = second compound 3.16 µM, first compound 0.0316 µM
[26] = second compound 3.16 µM, first compound 0.1 µM
[27] = second compound 3.16 µM, first compound 0.316 µM
[28] = second compound 3.16 µM, first compound 1 µM
[29] = second compound 3.16 µM, first compound 3.16 µM
[30] = second compound 3.16 µM, first compound 10 µM
[31] = second compound 10 µM, first compound 0.0316 µM
[32] = second compound 10 µM, first compound 0.1 µM
[33] = second compound 10 µM, first compound 0.316 µM
[34] = second compound 10 µM, first compound 1 µM
[35] = second compound 10 µM, first compound 3.16 µM
[36] = second compound 10 µM, first compound 10 µM
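Further: spheroids exposed to compounds for 7 days.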

Work on `CNCc1ccc(-c2[nH]c3cc(F)cc4c3c2CCNC4=O)cc1` + Cc1cccc(N(C)C(=O)C2C(O)CCN2c2nc(C)cc(C(F)(F)F)c2C#N)c1 yielded an IC50 (second compound 0.0316 µM) greater than 10 µM, an IC50 (second compound 0.1 µM) greater than 10 µM and an IC50 (second compound 0.316 µM) greater than 10 µM. For the same molecule, the IC50 (second compound 1 µM) was greater than 10 µM, the IC50 (second compound 3.16 µM) was greater than 10 µM and the IC50 (second compound 10 µM) was greater than 10 µM. It also gave a viability, T/C [1] of 92.2%, a viability, T/C [2] of 102% and a viability, T/C [3] of 98.2%. It also gave a viability, T/C [4] of 89.2%, a viability, T/C [5] of 90.3% and a viability, T/C [6] of 83.9%. For the same molecule, the viability, T/C [7] was 104%, the viability, T/C [8] was 104% and the viability, T/C [9] was 91.1%. It also gave a viability, T/C [10] of 92.7%, a viability, T/C [11] of 93.3% and a viability, T/C [12] of 83.2%. For the same molecule, the viability, T/C [13] was 104%, the viability, T/C [14] was 94.1% and the viability, T/C [15] was 102%. The viability, T/C [16] was 87.9%, the viability, T/C [17] was 92% and the viability, T/C [18] was 88.5%. It also gave a viability, T/C [19] of 92.2%, a viability, T/C [20] of 89.5% and a viability, T/C [21] of 88.7%. For the same molecule, the viability, T/C [22] was 113%, the viability, T/C [23] was 91% and the viability, T/C [24] was 86.3%. It also gave a viability, T/C [25] of 102%, a viability, T/C [26] of 90.8% and a viability, T/C [27] of 97.5%. The viability, T/C [28] was 96.3%, the viability, T/C [29] was 92.5% and the viability, T/C [30] was 85.2%. It also gave a viability, T/C [31] of 97%, a viability, T/C [32] of 103% and a viability, T/C [33] of 85.2%. The viability, T/C [34] was 88%, the viability, T/C [35] was 86.1% and the viability, T/C [36] was 88.5%.
With `COc1cccc(OCCCN)c1-c1cc(Nc2cnc(C#N)cn2)n[nH]1` + Cc1cccc(N(C)C(=O)C2C(O)CCN2c2nc(C)cc(C(F)(F)F)c2C#N)c1 the IC50 (second compound 0.0316 µM) was 0.0106 µM, the IC50 (second compound 0.1 µM) was 0.0207 µM and the IC50 (second compound 0.316 µM) was 0.0106 µM. For the same molecule, the IC50 (second compound 1 µM) was 0.00908 µM, the IC50 (second compound 3.16 µM) was 0.00891 µM and the IC50 (second compound 10 µM) was 0.00902 µM. For the same molecule, the viability, T/C (second compound 0.0316 µM, first compound 0.00316 µM) was 71.8%, the viability, T/C (second compound 0.0316 µM, first compound 0.01 µM) was 51.3% and the viability, T/C [1] was 42.9%. For the same molecule, the viability, T/C [2] was 44.4%, the viability, T/C [3] was 46.4% and the viability, T/C [4] was 45.6%. It also gave a viability, T/C (second compound 0.1 µM, first compound 0.00316 µM) of 78.5%, a viability, T/C (second compound 0.1 µM, first compound 0.01 µM) of 57.1% and a viability, T/C [7] of 42.5%. For the same molecule, the viability, T/C [8] was 46.8%, the viability, T/C [9] was 45.5% and the viability, T/C [10] was 48.6%. The viability, T/C (second compound 0.316 µM, first compound 0.00316 µM) was 71.9%, the viability, T/C (second compound 0.316 µM, first compound 0.01 µM) was 52.2% and the viability, T/C [13] was 40.9%. The viability, T/C [14] was 42.7%, the viability, T/C [15] was 41.8% and the viability, T/C [16] was 48.7%. The viability, T/C (second compound 1 µM, first compound 0.00316 µM) was 73%, the viability, T/C (second compound 1 µM, first compound 0.01 µM) was 48.5% and the viability, T/C [19] was 41.9%. It also gave a viability, T/C [20] of 44%, a viability, T/C [21] of 41.6% and a viability, T/C [22] of 46.8%. It also gave a viability, T/C (second compound 3.16 µM, first compound 0.00316 µM) of 71.8%, a viability, T/C (second compound 3.16 µM, first compound 0.01 µM) of 46.6% and a viability, T/C [25] of 47.5%. For the same molecule, the viability, T/C [26] was 48%, the viability, T/C [27] was 47.8% and the viability, T/C [28] was 47.6%. For the same molecule, the viability, T/C (second compound 10 µM, first compound 0.00316 µM) was 76.6%, the viability, T/C (second compound 10 µM, first compound 0.01 µM) was 47.4% and the viability, T/C [31] was 45.4%. The viability, T/C [32] was 44.3%, the viability, T/C [33] was 48.2% and the viability, T/C [34] was 48.2%.
With `Nc1ccn(C2OC(CO)C(O)C2(F)F)c(=O)n1` (stereo not drawn) + Cc1cccc(N(C)C(=O)C2C(O)CCN2c2nc(C)cc(C(F)(F)F)c2C#N)c1 the IC50 (second compound 0.0316 µM) was 5.14 µM, the IC50 (second compound 0.1 µM) was greater than 10 µM and the IC50 (second compound 0.316 µM) was 4.24 µM. For the same molecule, the IC50 (second compound 1 µM) was 4.15 µM, the IC50 (second compound 3.16 µM) was 3.06 µM and the IC50 (second compound 10 µM) was 7.26 µM. For the same molecule, the viability, T/C [1] was 59.3%, the viability, T/C [2] was 55.2% and the viability, T/C [3] was 55.2%. For the same molecule, the viability, T/C [4] was 52.1%, the viability, T/C [5] was 56.2% and the viability, T/C [6] was 42.8%. It also gave a viability, T/C [7] of 70.7%, a viability, T/C [8] of 56% and a viability, T/C [9] of 57.5%. For the same molecule, the viability, T/C [10] was 58.2%, the viability, T/C [11] was 55.3% and the viability, T/C [12] was 45.9%. The viability, T/C [13] was 67.2%, the viability, T/C [14] was 58.5% and the viability, T/C [15] was 55%. For the same molecule, the viability, T/C [16] was 57.6%, the viability, T/C [17] was 53.1% and the viability, T/C [18] was 45.4%. It also gave a viability, T/C [19] of 65.1%, a viability, T/C [20] of 55.4% and a viability, T/C [21] of 58.2%. The viability, T/C [22] was 57.4%, the viability, T/C [23] was 53.1% and the viability, T/C [24] was 42.8%. The viability, T/C [25] was 66%, the viability, T/C [26] was 56.7% and the viability, T/C [27] was 52%. For the same molecule, the viability, T/C [28] was 56.8%, the viability, T/C [29] was 54.5% and the viability, T/C [30] was 42.8%. The viability, T/C [31] was 68.9%, the viability, T/C [32] was 55.5% and the viability, T/C [33] was 59.3%. For the same molecule, the viability, T/C [34] was 56%, the viability, T/C [35] was 58% and the viability, T/C [36] was 45.1%.
`O=C(c1cc(Cc2n[nH]c(=O)c3ccccc23)ccc1F)N1CCN(C(=O)C2CC2)CC1` + Cc1cccc(N(C)C(=O)C2C(O)CCN2c2nc(C)cc(C(F)(F)F)c2C#N)c1 showed an IC50 (second compound 0.0316 µM) greater than 10 µM, an IC50 (second compound 0.1 µM) greater than 10 µM and an IC50 (second compound 0.316 µM) greater than 10 µM. It also gave an IC50 (second compound 1 µM) greater than 10 µM, an IC50 (second compound 3.16 µM) greater than 10 µM and an IC50 (second compound 10 µM) greater than 10 µM. It also gave a viability, T/C [1] of 85.9%, a viability, T/C [2] of 99.1% and a viability, T/C [3] of 97.2%. For the same molecule, the viability, T/C [4] was 94.2%, the viability, T/C [5] was 94.6% and the viability, T/C [6] was 76.3%. It also gave a viability, T/C [7] of 97.3%, a viability, T/C [8] of 104% and a viability, T/C [9] of 100%. It also gave a viability, T/C [10] of 102%, a viability, T/C [11] of 94.7% and a viability, T/C [12] of 83.1%. For the same molecule, the viability, T/C [13] was 104%, the viability, T/C [14] was 91.7% and the viability, T/C [15] was 91.9%. It also gave a viability, T/C [16] of 99.6%, a viability, T/C [17] of 98% and a viability, T/C [18] of 75.9%. It also gave a viability, T/C [19] of 109%, a viability, T/C [20] of 84.3% and a viability, T/C [21] of 89.1%. For the same molecule, the viability, T/C [22] was 94.1%, the viability, T/C [23] was 94.6% and the viability, T/C [24] was 86.1%. The viability, T/C [25] was 92%, the viability, T/C [26] was 89.7% and the viability, T/C [27] was 99.1%. The viability, T/C [28] was 89.2%, the viability, T/C [29] was 103% and the viability, T/C [30] was 82.9%. For the same molecule, the viability, T/C [31] was 98%, the viability, T/C [32] was 109% and the viability, T/C [33] was 109%. For the same molecule, the viability, T/C [34] was 86.1%, the viability, T/C [35] was 104% and the viability, T/C [36] was 79.9%.
